Assay results: paper PMC6715681, “A high-throughput screen to identify novel synthetic lethal compounds for the treatment of E-cadherin-deficient cells” (Scientific Reports, 2019)
pEC50: −log10 of the molar value. Like-named read-outs stand apart in the source and are kept apart here.

What was measured:
[1] = tested on: MCF10A WT and MCF10A CDH1^−/− cells; assay: Single-point confirmation screen (10 μM, CTB, 384-well), viability differential between isogenic lines; format: cell-based, human; conditions: averaged between three biological replicates, Supplementary Table 2
Description: In the single-point confirmation screen, compounds that preferentially harm MCF10A CDH1^−/− cells compared to the wild-type cells were now identified. Three biological replicates were performed for each of the isogenic cell lines at a single-point (10 μM) in 384-well plates. All assay plates had acceptable Z’ values above 0.4 and 23 out of 48 plates had values above 0.6. The POC R^2 correlation between the three biological replicates for the two isogenic cell lines were all above 0.8 (data not shown). A cell viability differential of ‘MCF10A WT POC – MCF10A CDH1^−/− POC’ was used to select hits. An arbitrary threshold for the mean differential of >8.5% was chosen in order to maximize the number of hits being screened in the subsequent stages and to reduce false negatives.
To incorporate a measure of the variability between replicates of the screen into the hit selection process, a further requirement was included of a minimum of 2/3 biological replicates having viability differentials >8.5%. This removed a further 52 compounds shown in blue with only one out of three biological replicates crossing the Y = X-8.5 line independent of the mean. In total, 256 compounds were above the hit selection threshold, thereby preferentially killing E-cadherin negative cells. The mean POC differential of the 256 hits was 17.6% +/− 7.1 (+/−SD), with the highest being 48% for SLEC-1 (Synthetic Lethal E-Cadherin compound 1). […] The resulting 256 SL compounds were then assayed in an 11-point screen for EC50 determination.
(§1) MCF10A WT and MCF10A CDH1^−/− cells were seeded into Corning black walled, clear bottom 384-well plates (assay plates) using a multidrop 384 reagent dispenser (Thermo Fisher Scientific) and a total volume of 50 μL per well.
As we have shown MCF10A CDH1^−/− cells have a prolonged lag to log phase growth of around 24 hours, in order to achieve a similar confluence at 72 hours post seeding MCF10A WT and MCF10A CDH1^−/− cell lines were seeded at 600 cells/well and 800 cells/well, respectively. […] At 72 hours post seeding, plates were removed from the incubator and left for 30 minutes at RT to equalise the temperature across all wells of the plates and reduce fluorescence-based edge effects before reading on an EnVision (PerkinElmer) at 550 nm excitation and 590 nm emission to quantify cell viability.
The coRFU values were then used to calculate the normalized readouts of percent of controls (Eq. 3) and the robust Z score (Eqs 4,5), where doxorubicin refers to an EC80 dose and DMSO was 0.2% v/v.3 coPOC=100×(SamplecoRFU−x¯doxorubicincoRFU)/(x¯DMSOcoRFU−x¯doxorubicincoRFU) 4 MAD=median([…]) 5 CorrectedrobustZscore=(SamplecoRFU−platemediancoRFU)/MAD

[2] = tested on: MCF10A WT cells; assay: 11-point dose-response screen, high-content imaging (HCI) of Hoechst 33342 nuclei; format: cell-based; conditions: Homo sapiens, MCF-10A, 11-point screen
Description: (§2) The 11-point dose-response screen evaluated a concentration range from 0.02 µM to 20 µM for both isogenic cell lines in duplicate biological replicates (Fig. 4). One limitation to metabolism-based cellular assays is that a change in read out (fluorescence, luminescence or absorbance) may not necessarily be caused by cell death and could instead result from a cessation of proliferation due to senescence or inhibited mitochondrial respiration. For this reason, a direct measurement of cell counts using cellular imaging of nuclei stained with Hoechst 33342 was also included at the 11-point screening stage. For the CTB 11-point screen all plates had acceptable Z’ values above 0.4, with the second biological replicate having 70% above 0.6 (Fig. 4A). The Z’ values for the high-content imaging (HCI) 11-point screen plates were above 0.4 for MCF10A WT, except one plate from biological replicate two with 0.396 (Fig. 4B). However, for MCF10A CDH1^−/− HCI data, only four plates were above a Z’ of 0.4 and the mean Z’ was 0.32 compared to a mean of 0.51 for MCF10A WT. A further quality metric known as the strictly standardized mean difference (SSMD)[40] is a less conservative approach for QC and a cut-off of >3 is generally used. The mean SSMD value was 7.04 for MCF10A WT and 5.27 for MCF10A CDH1^−/− plates and indicates the MCF10A CDH1^−/− HCI data was acceptable[41]. There was a good correlation between the top hits from the HCI and CTB 11-point screening with an overlap of 31 / 40 for the top 40 compounds selected from the eventual hit selection strategies.
A direct measurement of cell counts using cellular imaging of nuclei was also included at the 11-point screening stage. Plates were fixed, washed and stained using an ELx405 Select deep well washer (BioTek). Media was first aspirated leaving 10 μL/well, then 4% w/v PFA was added and plates left for 15 minutes at RT. Plates were then washed twice with PBS-T, before aspirating all permeabilization buffer and adding Hoechst 33342 (1 μg/mL final) in PBS. Plates were then stored in the dark at 4 °C, until being imaged on a BD Pathway 855. Two 10x images per well were taken and cell counts enumerated using CellProfiler[48].

[3] = tested on: MCF10A WT cells; assay: 11-point dose-response screen, cell titre blue (CTB) viability; format: cell-based, human; conditions: Homo sapiens, MCF-10A, 11-point screen; for pEC50: CTB, read-out: MCF10A WT CTB EC50
Description: as §2, §1
(§3) As we have shown MCF10A CDH1^−/− cells have a prolonged lag to log phase growth of around 24 hours, in order to achieve a similar confluence at 72 hours post seeding MCF10A WT and MCF10A CDH1^−/− cell lines were seeded at 600 cells/well and 800 cells/well, respectively. Following seeding, plates were left for one hour at RT without stacking[46] and then centrifuged at 500 × g (RCF) for one minute. Plates were then transferred to an incubator at 37 °C and 5% CO2. At 24 hours post seeding, the MiniTrak robotic liquid handling system (Perkin Elmer) was used to transfer 352 compounds per 384-well library plate to the first 22 columns of a 384-well assay plate containing cells to achieve a 10 μM final compound concentration for the pilot, primary and single-point confirmation screens. For the 11-point dose-response screen, compounds were added to columns 1–22, but excluding edge rows A and P of the library plate to reduce edge-effects (Supplementary Fig. 2). The controls of DMSO (0.2% v/v), doxorubicin (EC80) and entinostat (EC50) were added into columns 23–24 of each assay plate (Supplementary Table 1). Cell titre blue[47] was made in-house in sterile PBS from 597 μM resazurin, 78 μM methylene blue, 1 mM potassium hexacyanoferrate (III) and 1 mM potassium hexacyanoferrate (II) trihydrate. At 69 hours post seeding, 16.7% v/v CTB was added to plates and they were incubated at 37 °C for 3 hours (Supplementary Fig. 1). At 72 hours post seeding, plates were removed from the incubator and left for 30 minutes at RT to equalise the temperature across all wells of the plates and reduce fluorescence-based edge effects before reading on an EnVision (PerkinElmer) at 550 nm excitation and 590 nm emission to quantify cell viability.
(§4) Supplementary Table 1. Killing control and SL control effective concentrations.
(§5) Doxorubicin EC80 0.3 µM 0.4 µM
(§6) MCF10A WT cells were seeded at 600/well and MCF10A CDH1-/- cells at 800/well in 384-well plates. Drugs
(§7) were added at 24 hours post seeding and CTB was used as an end-point assay. Concentrations were normalized

[4] = tested on: MCF10A CDH1^−/− cells; assay: as above; format: cell-based, human; conditions: for pEC50: Homo sapiens, MCF-10A
Description: as §2, §1, §3, §4, §5, §6, §7

Structure (SMILES) | Differential at 1-pt [1] | pEC50 [2] | pEC50 [3] | activity at 20 µM ([3]; viability of WT cells at highest concentration 20 μM, read-out: MCF10A WT POC at 20 μM) | Differential at 20 μM ([4]; 11-point screen, MCF10A WT – MCF10A CDH1−/− POC at 20 μM) | pEC50 ([4]; 11-point screen (0.02–20 µM), CTB values, averaged between two biological replicates, Supplementary Table 2, read-out: MCF10A CDH1 -/- EC50) | pEC50 ([4]; 11-point screen, CTB, read-out: MCF10A CDH1^-/- CTB EC50)
COc1ccc2nc(C)cc(NCc3ccc(F)cc3)c2c1 [SLEC-11, N-(4-Fluorobenzyl)-6-methoxy-2-methylquinolin-4-amine] | 17.42 | 4.84 | < 4.70 | 100% | 106.45 | 5.16 | –
CC(O)CNCc1ccc(OCc2ccc(Cl)cc2Cl)cc1 (stereo not drawn) [SLEC-8] | – | 4.99 | 4.76 | – | – | – | 5.12
